Legend:
recombinant HDAC6 = biological target: T1, recombinant HDAC6 (Homo sapiens, UniProt Q9UBN7); assay: HDAC6 inhibition assay (Ac-peptide-AMC fluorescence); format: biochemical
T1 construct: purchased BPS Bioscience
T1 sequence (Q9UBN7 1-1215): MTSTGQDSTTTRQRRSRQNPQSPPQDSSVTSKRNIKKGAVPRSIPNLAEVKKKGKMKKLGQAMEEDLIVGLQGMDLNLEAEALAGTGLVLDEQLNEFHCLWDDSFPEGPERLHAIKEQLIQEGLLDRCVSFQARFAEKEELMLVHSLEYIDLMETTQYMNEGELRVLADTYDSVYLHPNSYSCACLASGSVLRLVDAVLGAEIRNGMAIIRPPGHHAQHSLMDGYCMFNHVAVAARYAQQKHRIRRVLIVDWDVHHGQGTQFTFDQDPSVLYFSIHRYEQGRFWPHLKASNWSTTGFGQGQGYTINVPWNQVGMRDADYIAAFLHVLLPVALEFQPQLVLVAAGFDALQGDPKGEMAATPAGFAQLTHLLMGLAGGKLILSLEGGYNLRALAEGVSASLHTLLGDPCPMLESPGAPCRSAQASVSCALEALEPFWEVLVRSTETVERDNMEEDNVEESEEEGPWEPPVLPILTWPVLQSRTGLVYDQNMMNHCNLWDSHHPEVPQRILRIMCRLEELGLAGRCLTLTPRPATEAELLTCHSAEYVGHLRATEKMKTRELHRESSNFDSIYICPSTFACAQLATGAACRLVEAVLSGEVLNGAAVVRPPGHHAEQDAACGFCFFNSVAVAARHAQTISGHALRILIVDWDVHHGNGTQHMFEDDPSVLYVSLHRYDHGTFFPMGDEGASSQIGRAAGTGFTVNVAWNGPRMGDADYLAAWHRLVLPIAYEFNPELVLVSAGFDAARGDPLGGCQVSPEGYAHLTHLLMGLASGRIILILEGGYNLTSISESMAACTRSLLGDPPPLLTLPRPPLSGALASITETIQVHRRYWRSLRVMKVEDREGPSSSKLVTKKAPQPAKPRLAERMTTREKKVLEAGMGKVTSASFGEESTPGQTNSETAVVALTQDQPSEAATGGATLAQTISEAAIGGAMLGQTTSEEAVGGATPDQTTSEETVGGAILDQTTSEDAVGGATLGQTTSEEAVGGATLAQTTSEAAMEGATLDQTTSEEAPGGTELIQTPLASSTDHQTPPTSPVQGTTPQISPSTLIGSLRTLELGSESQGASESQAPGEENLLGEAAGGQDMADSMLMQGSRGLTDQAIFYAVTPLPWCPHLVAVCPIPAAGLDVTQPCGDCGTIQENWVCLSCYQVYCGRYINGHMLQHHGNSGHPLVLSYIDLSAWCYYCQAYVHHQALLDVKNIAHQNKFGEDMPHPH
Description: The in vitro HDAC inhibition assays were carried out by Sundia MediTech Co. Ltd. in Shanghai, China. […] Reactions were stopped with trypsin, and the samples were incubated for another 90 min at 37 °C. […] IC50 values were obtained using GraphPad Prism software.

[1] = tested on: MDA-MB-436, MDA-MB-231, and MDA-MB-468 cells; assay: Colony formation assay; format: cell-based, human; conditions: approximately 14 days
Description: MDA-MB-231, MDA-MB-436 and MDA-MB-468 cells were seeded at a density of 2,000 cells in 6-well plates and cultured overnight. […] The cells were fixed with 4% paraformaldehyde (Merck) for 1 h at room temperature and stained with 0.1% crystal violet (Beyotime Biotechnology) for 30 min. Under an inverted phase contrast microscope (Leica Microsystems, Heidelberg, Germany), cell colonies were photographed at 5× magnification. All these analyses were performed at least three times.

TNBC cells = assay: Transwell migration assay; format: cell-based, human; conditions: 48 h, compared with the vehicle
Description: Cell migration and invasion assays were performed using Transwell chambers with 8 μm pores without Matrigel (for migration assay) or with Matrigel (for invasion assay).
Cell migration and invasion assays were performed using Transwell chambers with 8 μm pores (Corning) without Matrigel (for migration assay) or with Matrigel (for invasion assay). MDA-MB-436 and MDA-MB-231 cells were resuspended in serum-free Leibovitz’s L-15 medium and seeded in the upper chamber at a density of 12,000 cells/100 μL. The chambers were incubated in 24-well plates containing Leibovitz’s L-15 medium with 10% FBS and PARP/HDACi or DMSO. After 48 h, the cells were fixed with 4% paraformaldehyde and stained with crystal violet. The cells on the upper surface of the filters were removed by swabbing with a cotton swab, and the images were captured at 5× magnification under an inverted phase contrast microscope (Leica Microsystems).

MCF-10A cells = assay: MTT cell viability assay, MCF-10A; conditions: Homo sapiens, 72 h, read-out: IC50 MCF-10A
Description: The viability assay was measured by a 3-(4,5-dimethylthiazol-2-yl)−2,5-diphenyltetrazolium bromide (MTT) assay.
In brief, cells were seeded at a density of 6,000 cells in 96-well plates and cultured overnight. […] After aspiration of the medium, the formazan crystals were dissolved in 100 μL of DMSO. The absorbance at 490 nm was measured using a microplate reader (BioTek). All these analyses were performed at least three times.

SMILES	IC50 (recombinant HDAC6) [µM]	colony formation of TNBC cells [1]	migration of TNBC cells (TNBC cells)	IC50 (MCF-10A cells) [µM]
Nc1cc(F)ccc1NC(=O)/C=C/c1ccc(CN2CCN(C(=O)c3cc(Cc4n[nH]c(=O)c5ccccc45)ccc3F)CC2)cc1 [Compound B102]	> 10	reduction in colony formation	considerably inhibited the migration	13.7 ± 0.23
Nc1cc(F)ccc1NC(=O)CCc1ccc(CN2CCN(C(=O)c3cc(Cc4n[nH]c(=O)c5ccccc45)ccc3F)CC2)cc1 [Compound B302]	> 10	reduction in colony formation	considerably inhibited the migration	36.8 ± 6.59

Reference: PMC10770036, “Novel dual inhibitors of PARP and HDAC induce intratumoral STING-mediated antitumor immunity in triple-negative breast cancer” (Cell Death & Disease, 2024)
